How the values were obtained:
MBLAC2 = molecular target: T1, MBLAC2 (Homo sapiens, UniProt Q68D91); assay: chemoproteomic competition assay (MV4-11/SW620 lysate, iA/iC/iQ beads, MS readout); assay type: binding; settings: for MBLAC2 binding / Kd: nine-dose competition assay; for EC50: focused library profiling; for Kd: read-out: KDapp MBLAC2
T1 construct: incubated at increasing concentrations with a mixture of lysates of MV4–11 and SW620 cells; endogenous in cells; host or cells: mixed lysate of MV4-11 and SW620 cells
T1 sequence (Q68D91 1-279): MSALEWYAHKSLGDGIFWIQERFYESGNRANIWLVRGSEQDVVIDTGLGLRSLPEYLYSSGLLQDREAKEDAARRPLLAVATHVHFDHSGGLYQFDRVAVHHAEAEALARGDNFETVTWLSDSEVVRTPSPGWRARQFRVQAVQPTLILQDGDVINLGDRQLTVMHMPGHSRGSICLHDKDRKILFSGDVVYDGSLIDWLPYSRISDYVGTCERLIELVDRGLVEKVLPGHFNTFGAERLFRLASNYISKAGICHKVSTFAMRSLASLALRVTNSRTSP
Experimental: (§1) MBLAC2 is a metalloenzyme predicted to harbor one or two Zn^2+ ions in its active site. […] In this assay, compounds of interest are incubated at increasing concentrations with a mixture of lysates of MV4–11 and SW620 cells. The compound-treated lysates are then mixed with bead-immobilized hydroxamic acid-containing compounds iA, iC, and iQ (immobilized Quisinostat), which pull down compound-binding proteins such as HDACs, MBLAC2, ISOC1/2, ALDH2, and GATD3A (Figure a) that can be identified and quantified by mass spectrometry (MS). Proteins targeted by the library compounds in a preincubation step are prevented from being pulled down by the immobilized probes, leading to a dose-dependent reduction in MS signal. Initially, 12 metal-chelating compounds were profiled at two concentrations (10 μM and 100 μM) (Figure S3).
(§2) Chemoproteomic competition assays
Sample preparation. For the MBLAC2 and HDAC inhibitor competition assay, the generation of affinity matrices, lysate generation, pulldown assay, and sample preparation were performed as described in […]
detail in REF1. […]
(§3) LC-MS/MS. The different sample types were measured with different LC-MS/MS settings. MBLAC2 2-dose competition assays were measured with the Lumos1 setup, MBLAC2 9-dose competition assays were measured with the Lumos2 setup, and kinobeads assays were measured with the Eclipse setup.
(§4) Peptides were analyzed via LC–MS/MS on a Dionex Ultimate3000 nano HPLC coupled to either one of two Orbitrap Fusion Lumos mass spectrometers, or to an Orbitrap Eclipse mass spectrometer, operated via the Thermo Scientific Xcalibur software.
(§5) In the all setups, peptides were loaded on a trap column (100 μm × 2 cm, packed in-house with Reprosil-Gold C18 ODS-3 5 μm resin, Dr. Maisch, Ammerbuch) and washed with 5 μL/min solvent A (0.1% formic acid in HPLC grade water) for 10 min. Peptides were then separated on an analytical column (75 μm × 40 cm, packed in-house with Reprosil-Gold C18 3μm resin, Dr. Maisch, Ammerbuch) using a 50 min gradient ranging from 4 to 32% solvent B (0.1% formic acid, 5% DMSO in acetonitrile) in solvent A (0.1% formic acid, 5% DMSO in HPLC grade water) at a flow rate of 300 nL/min.
(§6) The mass spectrometers were operated in data-dependent mode, automatically switching between MS1 and MS2 spectra. MS1 spectra were acquired over a mass-to-charge (m/z) range of 360–1300 m/z at a resolution of 60,000 (at m/z 200) in the Orbitrap using a maximum injection time of 50 ms and an automatic gain control (AGC) target value of 4e5.
(§7) In Lumos settings, up to 12 peptide precursors were isolated in (isolation width of 1.2 Th for Lumos1 and 1.7 for Lumos2, maximum injection time of 75 ms, AGC value of 1e5 for Lumos1 and 2e5 for Lumos2), fragmented by HCD using 30% normalized collision energy (NCE) and analyzed in the Orbitrap at a resolution of 15,000 (Lumos2) or 30,000 (Lumos1). The dynamic exclusion duration of fragmented precursor ions was set to 20 s (Lumos1) or 30 s (Lumos2). In Eclipse measurements, a cycle time of 2 s was chosen. Peptides were isolated in the quadrupole with an isolation offset of 1.2 (isolation width of 1.2 Th, maximum injection time of 54 ms, AGC target of 200%) and fragmented by HCD with an NCE of 30% and analyzed in the Orbitrap at a resolution of 30,000. The dynamic exclusion on the Eclipse was set to 20 s.
Data analysis. The data analysis of MBLAC2/HDAC inhibitor competition assays was performed as described in detail in REF1. LFQ intensity values were used for the calculation of relative residual binding to the affinity matrix. […]

HeLa cells = assay: clathrin-mediated endocytosis of fluorescently labeled transferrin; assay type: cell-based; settings: HeLa cells, 2 µM, 20 h
Experimental: Given that local GTP production by NME1 and NME2 is essential for fueling dynamin-driven endocytosis, we investigated the effect of KV-50-mediated NME1/2 inhibition on fluorescent transferrin (TF) uptake in cells. HeLa cells were treated with KV-50 or known endocytosis inhibitors (Pitstop-2 and Dynasore), and surface-bound and internalized fluorescent TF were quantified.

[1] = test system: cell proliferation or fitness; assay: alamar blue cell metabolic activity assay with MBLAC2 inhibitors; assay type: cell-based; settings: 72h, five concentrations
Description: Our earlier observation that MBLAC2 inactivation leads to the upregulation of extracellular vesicles (EVs), combined with evidence of MBLAC2’s association with late endosomes and membrane processes, , prompted us to hypothesize that MBLAC2 inactivation might impair endocytosis. To test this hypothesis, we measured clathrin-mediated endocytosis of fluorescently labeled transferrin (TF) in the presence and absence of MBLAC2 inhibitors. […] Thus, the precise biological roles of MBLAC2 remain elusive. However, we anticipate that the selective compounds identified in this study will serve as valuable tools for elucidating the cell biological functions of MBLAC2 in future research.
Fig. S6| Characterization of MBLAC2 inhibitors. a, 9-dose competition assay of MBLAC2 selective inhibitors KV-65 and KV-79. b, Impact of MBLAC2i on cell metabolic activity assessed in an alamar blue assay. Cells were treated in triplicates with five concentrations of MBLAC2i and a DMSO vehicle control for 72h. c, Clathrin-mediated endocytosis assay based on measurement of fluorescent transferrin uptake. Dynasore and Pitstop-2 serve as positive controls. HeLa cells were pre-incubated with 100 µM Dynasore, 2 µM KV65, or 2 µM KV79 for 20 h before the microscopy readout. 30 µM Pitstop-2 was added only for 15 min before readout. […]

[2] = test system: compound-binding proteins such as HDACs, MBLAC2, ISOC1/2, ALDH2, and GATD3A; assay: chemoproteomic competition assay, proteome-wide target binding profile; set-up: species or system human; settings: dose-dependent competition
Experimental: as §1, §2
Sample preparation. For the MBLAC2 and HDAC inhibitor competition assay, the generation of affinity matrices, lysate generation, pulldown assay, and sample preparation were performed as described in detail in REF1. For the kinobeads assay, the generation of affinity matrices, lysate generation, pulldown assay, and sample preparation were performed as described in detail in REF2.
as §3, §4, §5, §6
as §7, with “HCD with an NCE of 30% and analyzed in the Orbitrap at a resolution of 30,000. The dynamic exclusion on the Eclipse was set to 20 s.” left out

[3] = molecular target: recombinant HINT1 (hHint1) (Homo sapiens, UniProt P49773); assay: HINT1 enzyme activity assay (TrpA hydrolysis, fluorescence); assay type: biochemical; settings: hHint1 0.002 µM, TrpA 0.5 µM, 25 °C
recombinant HINT1 (hHint1), sequence (P49773 whole entry): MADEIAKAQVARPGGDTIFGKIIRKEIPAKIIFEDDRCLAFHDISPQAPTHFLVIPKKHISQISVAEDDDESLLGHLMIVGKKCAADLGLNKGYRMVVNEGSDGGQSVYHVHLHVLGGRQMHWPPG
Description: While the biologically relevant substrates of HINT1 have not been clearly elucidated, the protein has been implicated in opioid receptor signaling, − regulation of the melanoma-associated transcription factor MITF, , and DNA damage repair. These functions position HINT1 as a potential pharmacological target for treating conditions such as opioid resistance or melanoma. The only reported HINT1-targeting pharmacophores are nucleoside-based nonhydrolyzable substrate analogs, such as the carbamate TrpGC (Figure a). , We evaluated the inhibitory potential of KV-24 and KV-30 in enzyme activity assays using recombinant HINT1. […] This discrepancy could be attributed to reduced affinity for the recombinant enzyme due to the absence of post-translational modifications (PTMs), cofactors, or interaction partners that enhance drug binding. Alternatively, it might result from substrate dilution in the lysate, whereas high substrate concentrations in the enzyme activity assay require the inhibitor to compete more effectively.
Mouse brain proteomics – LC-MS/MS. Proteome analysis of brain mouse tissue samples was performed on a micro-flow LC timsTOF HT setup described in detail in REF14. Liquid chromatography in micro-flow mode was performed on a Vanquish Neo UHPLC System (Thermo Fisher Scientific) at a flow rate of 50 µL/min. […] 10 µg of peptide mix was injected and analyzed using a 58 min gradient starting at 1% B up to 45% B (1 h method). […]
Mouse proteomics data analysis. The data files were analyzed with DIA-NN 1.8.1. […] The resulting protein group tables were further analyzed by Perseus 1.6.2.2. […]
CME of transferrin and confocal microscopy analyses.For transferrin uptake experiments HeLa cells were seeded on Matrigel-coated coverslips, and incubated with 0.1 % DMSO, or with 100 µM dynasore, 20 µM KV50, 2 µM KV65, or 2 µM KV79 in media containing 10% FCS at 37°C for 20 h. […] All inhibitor treatments were performed in duplicate, to enable quantification of surface levels of transferrin receptors, and to assess the capability of transferrin receptor endocytosis. […]

Toxoplasma gondii = test system: Toxoplasma gondii; set-up: method as in PMID 33360687, PMID 35483428, PMID 38431113, PMID 29414107; settings: in human host cells; cited from earlier work

## O=C(NO)c1ccc(Cn2c(=O)n(CCc3ccccc3)c(=O)c3ccccc32)cc1 [Compound J22352]
MBLAC2
  MBLAC2 binding: potently bound MBLAC2

## O=C(NO)c1ccc(CN2c3ccccc3Sc3ccccc32)cc1 [KV-46]
MBLAC2
  EC50: 83 nM

## O=C(NO)c1ccc(CN2c3ccccc3S(=O)(=O)c3ccccc32)cc1 [KV-65]
HeLa cells
  TF uptake: not statistically significant
[1]
  concentration up to which cell proliferation or fitness not affected: > 10 µM
MBLAC2
  EC50: 37 nM

## O=C(NO)c1ccc(CN2c3ccccc3Sc3ccc(C(F)(F)F)cc32)cc1 [KV-79]
HeLa cells
  TF uptake: not statistically significant
[1]
  concentration up to which cell proliferation or fitness not affected: > 10 µM
MBLAC2; abstract
  selectivity compared to HDACs: over 60 fold
MBLAC2
  EC50: 25 nM

## O=C(CCCCCCC(=O)NO)NO [SBHA, suberoyl-bis-hydroxamic acid, reference compound]
[2]
  targets / off-targets bound: bind off-targets such as ISOC1/2, GATD3A, and ALDH2

## CN(CC(=O)N(Cc1ccc(C2CCCCC2)cc1)c1ccc(C(=O)NO)cc1)S(=O)(=O)c1c(F)c(F)c(F)c(F)c1F [SH5–07]
MBLAC2
  Kd: ~800 nM

## O=C(NO)c1ccc(CN2CCCc3cc(Cl)ccc32)cc1 [SW-100]
MBLAC2
  MBLAC2 binding: potently bound MBLAC2
  Kd: 75 nM

## Cn1c(CCCCCCC(=O)NO)nc2cc(N(CCCl)CCCl)ccc21 [Tinostamustine, reference compound]
[2]
  targets / off-targets bound: bind off-targets such as ISOC1/2, GATD3A, and ALDH2

## Nc1nc2c(ncn2[C@@H]2O[C@H](COC(=O)NCCc3c[nH]c4ccccc34)[C@@H](O)[C@H]2O)c(=O)[nH]1 [TrpGC, reference compound]
[3]
  IC50: 9.1 µM

## CN1CCc2c(c3ccccc3n2Cc2ccc(C(=O)NO)cc2)C1 [Tubastatin A, reference compound]
Toxoplasma gondii
  inhibition of proliferation of protozoans: potently inhibit the proliferation

## ACY-1083
MBLAC2
  MBLAC2 binding: potently bound MBLAC2

— article PMC12186257, “Serendipitous and Systematic Chemoproteomic Discovery of MBLAC2, HINT1, and NME1‑4 Inhibitors from Histone Deacetylase-Targeting Pharmacophores” (ACS Chemical Biology, 2025)
